# Laboratory results: patent US20090175914A1, “Salts or Complexes of Methyl Donors With Phytic Acid or Its Derivatives and Method for the Synthesis Thereof” (priority 2005, published 2009)
# Key:
# [1] = test system: peripheral neuropathies caused by diabetes; details: 500 mg twice a day for two weeks; cited from earlier work
# [2] = Stability trial, 5 days at 53° C., degradation evaluated by HPCEC-UV; assay type: physicochemical
# Description: The evaluation of the degradation was carried out by HPCEC-UV analysis using 0.5M (pH 4) ammonium formiate as an eluent, a flow of 1.2 ml/min, and a Supelcosil LC-SCX column (25 cm, 4.6 mm, 5 micron). The product thus obtained was subjected to stability trials according to a procedure similar to the one adopted for the Comparative Example above. […] Also in this case, the evaluation of the degradation was carried out by HPCEC-UV analysis using 0.5M ammonium formiate (pH 4) as an eluent, a flow of 1.2 ml/min, and a Supelcosil LC-SCX column (25 cm, 4.6 mm, 5 μm).
molecule,measurement,setting,value
O[C@H]1[C@H](O)[C@@H](O)[C@H](O)[C@@H](O)[C@H]1O [inositol],therapeutic result,[1],considerable results
SAMe Phytate Salt [Example 1],stability,[2]; 5 days at 53° C.,very stable
SAMe salt with phytic acid [SAMe phytate complex],SAMe ion,"[2]; Lot 1, after 5 days at 53° C.",23.2 % p/p
same,% Variation of SAMe ion,"[2]; Lot 1, after 5 days at 53° C. vs initial",−7.9%
same,SAMe ion,"[2]; Lot 1, immediately after preparation",25.2 % p/p
same,SAMe ion,"[2]; Lot 2, after 5 days at 53° C.",23.3 % p/p
same,% Variation of SAMe ion,"[2]; Lot 2, after 5 days at 53° C. vs initial",−7.2%
same,SAMe ion,"[2]; Lot 2, immediately after preparation",25.1 % p/p
same,SAMe ion,"[2]; Lot 3, after 5 days at 53° C.",23.2 % p/p
same,% Variation of SAMe ion,"[2]; Lot 3, after 5 days at 53° C. vs initial",−8.3%
same,SAMe ion,"[2]; Lot 3, immediately after preparation",25.3 % p/p
same,SAMe ion,"[2]; Mean of 3 lots, after 5 days at 53° C.",23.2 % p/p
same,% Variation of SAMe ion,"[2]; Mean of 3 lots, after 5 days at 53° C. vs initial",−7.8%
same,SAMe ion,"[2]; Mean of 3 lots, immediately after preparation",25.2 % p/p
